Key:
[1] = test system: L1210 mouse leukemia cells; assay: Inhibition of propagation of cancer cells, MTT method, 48 hours; type: cell-based; details: 37° C.
Description: (§1) L1210 mouse leukemia cells, P388 mouse leukemia cells, Hela human uterine neck cancer cells, T24 human bladder cancer cells or MCF7 human mammary cancer cells were suspended in Eagle medium (Hela and T24) containing 10% bovine fetal serum, PRMI1640 medium (L1210 and MCF7) or PRM11740 medium (P388) mixed with 5×10^-5 M mercaptoethanol, and the cells were seeded on a 96-well plate at an inoculum size of 3×10^3 cells per hole. A compound obtained in an example described below or cysplatin (CDDP) was diluted with physiological saline solution and added to the medium at various concentrations. Culturing was conducted at 37° C. for 48 hours in a carbon dioxide incubator, and the propagation of cells was determined by the MTT [3-(4,5-dimethylthiazol-2-yl-)-2,5-diphenyl tetrazolium bromide] method (J. Immunol. Method, 65, 55, 1983). The absorbance A after 48 hours of culturing at each concentration, the absorbance B after 48 hours of culturing in the control, and the absorbance C before addition of the compound obtained in the example were determined, and the propagation reaction rate D of each concentration was calculated from the following formula: [formula] The concentration IC50, unit: μg/ml) of the compound obtained in the example giving the value corresponding to 50% of the value of the control was determined from the curve showing the relationship between the concentration of the compound obtained in the example and the propagation reaction rate.

[2] = test system: P388 mouse leukemia cells; assay: as above; type: cell-based; details: 37° C.
Description: as §1

[3] = test system: MCF7 human mammary cancer cells; assay: as above; type: cell-based; details: 37° C.
Description: as §1

[4] = test system: T24 human bladder cancer cells; assay: as above; type: cell-based; details: 37° C.
Description: as §1

[5] = test system: Hela human uterine neck cancer cells; assay: as above; type: cell-based; details: 37° C.
Description: as §1

[6] = test system: Mouse leukemia L1210 cells; assay: Anti-tumor effect (life prolongation) in mice transplanted with L1210 cells; type: in vivo, mouse (female BDF1); details: abdominal cavity; for T/C (life prolongation ratio) / ratio of the number of surviving mice to the number of tested mice / Average Survival Day Number / ILS30 (dose giving a 30% life-prolonging effect over the control group) / ILSmax (dose giving a highest life-prolonging effect) / TR (cure ratio; ILSmax/ILS30): once a day for 3 days; for ratio of the number of surviving mice to the number of tested mice: 30th day; for Average Survival Day Number: 30 days
Description: Mouse leukemia L1210 cells (1×10^5) were transplanted into the abdominal cavity of a 6-weeks-old female BDF1 mouse. Then, continuously for 3 days from the next day, a compound of a compound obtained in an example described below or CDDP was administered to the abdominal cavity once a day. In the control group, physiological saline solution alone was similarly administered.
The anti-tumor effect was evaluated based on the life prolongation ratio (T/C value) determined from the average survival day numbers of the group of the compound obtained in the example and the control group after 30 days from the transplantation of L1210. On the 30th day from the transplantation, the experiment was concluded. In the case of mice surviving for more than 30 days, the survival day number was regarded as 30. [formula] The average survival day number at each dose, the T/C value (%) and the ratio of the number of surviving mice upon termination of the experiment to the number of tested mice are shown in Table 2. The ILS30 value (the dose giving a 30% life-prolonging effect over the control group), the ILSmax value (the dose giving a highest life-prolonging effect), the TR value (cure ratio; ILSmax /ILS30) and the CR value (the ratio of the number of mice completely cured at the ILSmax value and the number of mice showing no propagation of a tumor after 30 days from the transplantation to the number of tested mice) are shown in Table 3.
Note, 1 indicates the ratio of the number of surviving mice to the number of tested mice.

Acute toxicity test = type: in vivo, mouse (male, ICR family); details: administration into the abdominal cavity, male ICR mice

Compound: 1:1 mixture of oxalate-(1R,2R)-diaminocyclooctane platinum (II) and oxalate-(1S,2S)-diaminocyclooctane platinum (II) [Example 1]
- IC50 [1]: 0.03 mg/L
- IC50 [2]: 0.06 mg/L
- IC50 [3]: 0.41 mg/L
- IC50 [4]: 1.43 mg/L
- IC50 [5]: 0.29 mg/L
- T/C (life prolongation ratio) ([6]; 0.3 mg/kg): > 183%
- ratio of the number of surviving mice to the number of tested mice ([6]; 0.3 mg/kg): 1/6
- Average Survival Day Number ([6]; 0.3 mg/kg): > 16.8 days
- T/C (life prolongation ratio) ([6]; 1.0 mg/kg): > 214%
- ratio of the number of surviving mice to the number of tested mice ([6]; 1.0 mg/kg): 1/6
- Average Survival Day Number ([6]; 1.0 mg/kg): > 19.7 days
- T/C (life prolongation ratio) ([6]; 3.0 mg/kg): > 220%
- ratio of the number of surviving mice to the number of tested mice ([6]; 3.0 mg/kg): 2/6
- Average Survival Day Number ([6]; 3.0 mg/kg): > 20.3 days
- T/C (life prolongation ratio) ([6]; 10.0 mg/kg): > 326%
- ratio of the number of surviving mice to the number of tested mice ([6]; 10.0 mg/kg): 6/6
- Average Survival Day Number ([6]; 10.0 mg/kg): > 30.0 days
- ILS30 (dose giving a 30% life-prolonging effect over the control group) [6]: 0.06 mg/kg
- ILSmax (dose giving a highest life-prolonging effect) [6]: 10.0 mg/kg
- TR (cure ratio; ILSmax/ILS30) [6]: 167
- CR (ratio of mice completely cured at ILSmax and showing no propagation of a tumor after 30 days to tested mice) [6]: 6/6

Compound: [NH2][Pt]([NH2])([Cl])[Cl] [CDDP, cisplatin, reference compound]
- IC50 [1]: 0.46 mg/L
- IC50 [2]: 0.09 mg/L
- IC50 [3]: 3.28 mg/L
- IC50 [4]: 1.51 mg/L
- IC50 [5]: 1.42 mg/L
- ILS30 (dose giving a 30% life-prolonging effect over the control group) [6]: 1.5 mg/kg
- ILSmax (dose giving a highest life-prolonging effect) [6]: 6.0 mg/kg
- TR (cure ratio; ILSmax/ILS30) [6]: 4
- CR (ratio of mice completely cured at ILSmax and showing no propagation of a tumor after 30 days to tested mice) [6]: 3/6
- LD50 (Acute toxicity test): 14.6 mg/kg

From patent US5214174A, “Platinum complex and anti-tumor agent comprising said complex as active ingredient” (Tsumura & Co., priority 1989, dated 1993)
